In patent US20120214847A1, “2-[1-PHENYL-5-HYDROXY-4a-SUBSTITUTED-HEXAHYDROCYCLOPENTA[F]INDAZOL-5-YL]ETHYL PHENYL DERIVATIVES AS GLUCOCORTICOID RECEPTOR LIGANDS” (Merck Sharp & Dohme Corp., priority 2009, published 2012) one finds Emax and EC50 data, which are given here for 17 molecules.

Read-outs that look alike come from different tables or passages of the source.

For this assay, the target named is T1, human GR (Homo sapiens, UniProt P04150).
T1 construct: naturally expresses the human GR; endogenous in cells
T1 sequence (P04150 1-777): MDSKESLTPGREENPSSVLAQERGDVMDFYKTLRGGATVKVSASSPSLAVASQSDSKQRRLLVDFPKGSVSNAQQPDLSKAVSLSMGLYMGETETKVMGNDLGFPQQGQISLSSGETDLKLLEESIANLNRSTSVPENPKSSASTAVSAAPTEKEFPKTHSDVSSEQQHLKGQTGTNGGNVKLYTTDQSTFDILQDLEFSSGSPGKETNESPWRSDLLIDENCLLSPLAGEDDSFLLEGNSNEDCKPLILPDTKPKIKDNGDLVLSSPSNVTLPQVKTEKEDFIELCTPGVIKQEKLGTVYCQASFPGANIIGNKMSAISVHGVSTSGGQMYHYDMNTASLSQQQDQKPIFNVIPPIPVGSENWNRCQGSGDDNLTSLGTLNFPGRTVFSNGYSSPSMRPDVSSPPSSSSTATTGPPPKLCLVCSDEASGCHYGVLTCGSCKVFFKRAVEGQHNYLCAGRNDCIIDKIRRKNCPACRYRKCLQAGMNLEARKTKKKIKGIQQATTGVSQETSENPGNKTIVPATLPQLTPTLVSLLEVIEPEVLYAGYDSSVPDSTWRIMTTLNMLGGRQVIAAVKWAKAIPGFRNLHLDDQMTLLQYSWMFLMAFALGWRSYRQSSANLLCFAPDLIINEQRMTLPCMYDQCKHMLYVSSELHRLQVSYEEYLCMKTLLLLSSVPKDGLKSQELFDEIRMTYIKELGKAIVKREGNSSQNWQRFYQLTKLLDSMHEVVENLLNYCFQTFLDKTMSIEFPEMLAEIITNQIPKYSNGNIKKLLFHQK
Put plainly: Trans-activation modulation of glucocorticoid receptor (GRAMMER), MMTV-LUC reporter in A549 cells. Conditions: for Emax: Emax relative to the activity obtained with 300 nM dexamethasone, read-out: Transactivation A549 Cells Grammer Emax (%); for EC50: IP = inflection point, read-out: Transactivation A549 Cells Grammer IP. The assay is classed as cell-based. The source says: Trans-Activation Modulation of Glucocorticoid Receptor (GRAMMER)
This assay assesses the ability of test compounds to control transcription from the MMTV-LUC reporter gene in lung adenocarcinoma A549 cells or HeLa cells, a human […] cell line that naturally expresses the human GR. The assay measures induction of a modified MMTV LTR/promoter linked to the LUC reporter gene.
The routine transient assay consists of plating 7,000-25,000 cells/well of a white, clear-bottom 96-well plate. Alternatively, 384-well plates can be used at a cell concentration of 10,000/well. The media that the cells are plated in is “exponential growth medium” which consists of phenol red-free RPMI1640 containing 10% FBS, 4 mM L-glutamine, 20 mM HEPES, 10 ug/mL human insulin, and 20 ug/mL gentamicin. Incubator conditions are 37° C. and 5% C02. The transfection is done in batch mode. The cells are trypsinized and counted to the right cell number in the proper amount of fresh media. It is then gently mixed with the FuGene6/DNA 25 mix and plated onto the 96 or 384-well plate, all the wells receive 100 uL or 40 uL, respectively, of medium+lipid/DNA complex then incubated 37° C. overnight. The transfection cocktail consists of serum-free OptiMEM, FuGene6 reagent and DNA. The manufacturer's (Roche Biochemical) protocol for cocktail setup is as follows: The lipid to DNA ratio is approximately 2.5:1 and the incubation time is 20 min at room temperature. Sixteen to 24 h after transfection, the cells are treated with dexamethasone to a final concentration of 10 nM as well as the compound of interest, such that final DMSO (vehicle) concentration is equal to or less than 1%. Each plate also contains samples that are treated with 10 nM dexamethasone alone, which is used as the 100% activity control. The cells are exposed to the compounds for 24 h. After 24 h, the cells are lysed by a Promega cell culture lysis buffer for approximately 30 min and then the luciferase activity in the extracts is assayed in the 96-well format luminometer. In 384 well format, Steady-Glo (Promega) or Steady-Lite (PerkinElmer) can be used by adding an equal volume of reagent to the media present in each well. Activity induced by 10 nM dexamethasone alone is set at 100% activity. Antagonist activity is calculated by determining the decrease in dexamethasone-induced activity in response to compound treatment relative to samples that were treated with dexamethasone alone. Results are expressed as % inhibition of 10 nM dexamethasone activity or as fold of 10 nM dexamethasone activity. This transactivation assay can be performed in an agonist and antagonist mode to identify these different activities.
Activity of test compounds is calculated as the Emax relative to the activity obtained with 300 nM dexamethasone. […] The exemplified tissue selective glucocorticoid receptor modulators of the present invention display agonist activity in this assay of greater than 5% and less than 100%, and maximal transactivation activity less then maximal transrepression activity. The action of compounds is also tested in an antagonist mode (Anti-GRAMMER) in which the cells are treated with medium containing an agonist such as 10 nM DEX and the ability of agents to inhibit the activation by an agonist is measured.

In general, Emax refers to the maximal effect, on the per cent scale that the assay sets.

For `CC[C@]12Cc3cnn(-c4ccc(F)cc4)c3C=C1CC[C@@]2(O)CCc1nccc(OC)c1C(F)C(N)=O` (stereo partly drawn) [Example 65, 2-(2-{2-[(4aS,5R)-4a-Ethyl-1-(4-fluorophenyl)-5-hydroxy-1,4,4a,5,6,7-hexahydrocyclopenta[f]indazol-5-yl]ethyl}-4-methoxypyridin-3-yl)-2-fluoroacetamide], under “A549 cells”, the maximal response (Emax) amounted to 34% and the EC50 came out at 0.175 µM.

For the molecule `NC(=O)c1ccccc1CC[C@]1(O)CCC2=Cc3c(cnn3-c3ccccc3)C[C@@]21C1CC1` [Example 29, 2-{2-[(4aR,5R)-4a-Cyclopropyl-5-hydroxy-1-phenyl-1,4,4a,5,6,7-hexahydrocyclopenta[f]indazol-5-yl]ethyl}benzamide], the maximal response (Emax) (A549, A549 cells) is 12%. The EC50 (A549 cells) was found to be 0.074 µM.

For the molecule `CC(C)(CO)NC(=O)c1ccccc1CC[C@]1(O)CCC2=Cc3c(cnn3-c3ccc(F)cc3)C[C@@]21C1CC1` [Example 45, 2-{2-[(4aR,5R)-4a-Cyclopropyl-1-(4-fluorophenyl)-5-hydroxy-1,4,4a,5,6,7-hexahydrocyclopenta[f]indazol-5-yl]ethyl}-N-(1-hydroxy-2-methylpropan-2-yl)benzamide], the Emax (A549, A549 cells) worked out at 39%. For the same molecule, where the note is “A549 cells”, the EC50 worked out at 0.022 µM.

As to `CC[C@]12Cc3cnn(-c4ccccc4)c3C=C1CC[C@@]2(O)CCc1cccc(F)c1C#N` [Example 15, 2-{2-[(4aS,5R)-4a-Ethyl-5-hydroxy-1-phenyl-1,4,4a,5,6,7-hexahydrocyclopenta[f]indazol-5-yl]ethyl}-6-fluorobenzonitrile], the Emax (A549, A549 cells) was found to be 29%. Also, the EC50 (A549 cells) came out at 0.062 µM.

As for `CC[C@]12Cc3cnn(-c4cccnc4)c3C=C1CC[C@@]2(O)CCc1cccc(F)c1C#N` [Example 10, 2-{2-[(4aS,5R)-4a-Ethyl-5-hydroxy-1-(pyridin-3-yl)-1,4,4a,5,6,7-hexahydrocyclopenta[f]indazol-5-yl]ethyl}-6-fluorobenzonitrile], the maximal response (Emax) (A549, A549 cells) was 20%. Also, the EC50 (A549 cells) was 0.116 µM.

Turning to `NC(=O)CNC(=O)c1ccccc1CC[C@]1(O)CCC2=Cc3c(cnn3-c3ccc(F)cc3)C[C@@]21C1CC1` [Example 47, N-(2-Amino-2-oxoethyl)-2-{2-[(4aR,5R)-4a-cyclopropyl-1-(4-fluorophenyl)-5-hydroxy-1,4,4a,5,6,7-hexahydrocyclopenta[f]indazol-5-yl]ethyl}benzamide], the maximum response (Emax) (A549, A549 cells) was determined as 46%. For the same molecule, the EC50 (A549 cells) stood at 0.017 µM.

Consider `CC[C@]12Cc3cnn(-c4ccc(F)cc4)c3C=C1CC[C@@]2(O)CCc1ncccc1S(=O)(=O)C(C)C` [Example 62, (4aS,5R)-4a-Ethyl-1-(4-fluorophenyl)-5-{2-[3-(propan-2-ylsulfonyl)pyridin-2-yl]ethyl}-1,4,4a,5,6,7-hexahydrocyclopenta[f]indazol-5-ol], for which, where the note is “A549, A549 cells”, the Emax is 43%. Also, where the note is “A549 cells”, the EC50 is 0.035 µM.

For the molecule `CC[C@]12Cc3cnn(-c4ccc(F)cc4)c3C=C1CC[C@@]2(O)CCc1ccccc1S(=O)(=O)C(C)C` [Example 40, (4aS,5R)-4a-Ethyl-1-(4-fluorophenyl)-5-{2-[2-(propan-2-ylsulfonyl)phenyl]ethyl}-1,4,4a,5,6,7-hexahydrocyclopenta[f]indazol-5-ol], the Emax (A549, A549 cells) was 36%. Moreover, the EC50 (A549 cells) was 0.101 µM.

As for `NC(=O)[C@H](F)c1c(F)cccc1CC[C@]1(O)CCC2=Cc3c(cnn3-c3ccc(F)cc3)C[C@@]21C1CC1` [Example 57, (2R)-2-(2-{2-[(4aR,5R)-4a-Cyclopropyl-1-(4-fluorophenyl)-5-hydroxy-1,4,4a,5,6,7-hexahydrocyclopenta[f]indazol-5-yl]ethyl}-6-fluorophenyl)-2-fluoroethanamide], the Emax (A549, A549 cells) came to 11%. Where the note is “A549 cells”, the EC50 worked out at 0.031 µM.

With `NC(=O)Cc1ccccc1CC[C@]1(O)CCC2=Cc3c(cnn3-c3ccc(F)cc3)C[C@@]21C1CC1` [Example 56, 2-(2-{2-[(4aR,5S)-4a-Cyclopropyl-1-(4-fluorophenyl)-5-hydroxy-1,4,4a,5,6,7-hexahydrocyclopenta[f]indazol-5-yl]ethyl}phenyl)acetamide], the Emax (A549, A549 cells) was 9%. In addition, under “A549 cells”, the EC50 was found to be 0.014 µM.

Consider `CC[C@]12Cc3cnn(-c4ccc(F)cc4)c3C=C1CC[C@@]2(O)CCc1ccc(F)cc1C(N)=O` [Example 8, 2-{2-[(4aS,5R)-4a-Ethyl-1-(4-fluorophenyl)-5-hydroxy-1,4,4a,5,6,7-hexahydrocyclopenta[f]indazol-5-yl]ethyl}-5-fluorobenzamide], for which, where the note is “A549, A549 cells”, the Emax worked out at 47%. The EC50 (A549 cells) was determined as 0.106 µM.

Turning to `CC[C@]12Cc3cnn(-c4ccc(F)cc4)c3C=C1CC[C@@]2(O)CCc1ccccc1S(=O)(=O)CC` [Example 51, (4aS,5R)-4a-Ethyl-5-{2-[2-(ethylsulfonyl)phenyl]ethyl}-1-(4-fluorophenyl)-1,4,4a,5,6,7-hexahydrocyclopenta[f]indazol-5-ol], the Emax (A549, A549 cells) came out at 28%. Further, the EC50 (A549 cells) was 0.092 µM.

Take `CC[C@]12Cc3cnn(-c4ccc(F)cc4)c3C=C1CC[C@@]2(O)CC(O)c1ncccc1F` (stereo partly drawn) [Example 76, (4aS,5R)-4a-Ethyl-1-(4-fluorophenyl)-5-[2-(3-fluoropyridin-2-yl)-2-hydroxyethyl]-1,4,4a,5,6,7-hexahydrocyclopenta[f]indazol-5-ol]: the Emax (A549, A549 cells) worked out at 31%. In addition, under “A549 cells”, the EC50 was 0.142 µM.

For the molecule `CC[C@]12Cc3cnn(-c4ccccc4)c3C=C1CC[C@@]2(O)CC(O)c1ccccn1` (single isomer, unassigned) [Example 67a], the Emax (A549, A549 cells) worked out at 20%. The EC50 (A549 cells) is 0.284 µM.

In the case of `CS(=O)(=O)c1ccccc1CC[C@]1(O)CCC2=Cc3c(cnn3-c3ccc(F)cc3)C[C@@]21C1CC1` [Example 58, (4aR,5R)-4a-Cyclopropyl-1-(4-fluorophenyl)-5-{2-[2-(methylsulfonyl)phenyl]ethyl}-1,4,4a,5,6,7-hexahydrocyclopenta[f]indazol-5-ol], the Emax (A549, A549 cells) is 11%. Also, the EC50 (A549 cells) was found to be 0.009 µM.

As to `CC[C@]12Cc3cnn(-c4cccnc4)c3C=C1CC[C@@]2(O)CCc1ccccc1C(N)=O` [Example 13, 2-{2-[(4aS,5R)-4a-Ethyl-5-hydroxy-1-(pyridin-3-yl)-1,4,4a,5,6,7-hexahydrocyclopenta[f]indazol-5-yl]ethyl}benzamide], for the setting “A549, A549 cells”, the Emax was 34%. The EC50 (A549 cells) was 0.224 µM.

Regarding `CC[C@]12Cc3cnn(-c4cccnc4)c3C=C1CC[C@@]2(O)CCc1ccccc1C#N` [Example 5, 2-{2-[(4aS,5R)-4a-Ethyl-5-hydroxy-1-(pyridin-3-yl)-1,4,4a,5,6,7-hexahydrocyclopenta[f]indazol-5-yl]ethyl}benzonitrile], the Emax (A549, A549 cells) amounted to 29%. Moreover, the EC50 (A549 cells) was 0.047 µM.
